Where two headings read alike, the source gives them in different places.
Key:
consortium [1] = test: Degradation of other N-alkyl dithiocarbamates by the consortium (1000 ml bioreactor); details: pH 7.2, 20-27° C.
Procedure: A 1000 ml bioreactor containing the synthetic medium (described above) has been inoculated with the consortium density of approximately 1.1×10^7 ml. The initial pH value was 7.2 and the temperature varied between 20-27° C. Dithiocarbamate concentration was measured spectrophometrically by complexing with cupric acetate and measuring the absorbance at 430 nm.

consortium [2] = details: within 72 hour; waste wash-water about 1100 ppm SDM and dilution at 500 ppm, pH 7.8; 20% inoculum of 72 h consortium
Procedure: The sample, and a dilution of it at 500 ppm and pH 7.8, was inoculated with a 20% (VN) amount of a 72 h consortium. A control without inoculation was included.

microbial consortium = details: soil
Procedure: One soil environment was inoculated with approximately 1.2×10^7 consortium members/g soil while the other remained uninoculated. Nitrogen and phosphorus was added to both systems. The initial soil pH was 6.8 and the temperature varied from 18° C. to 27° C. Water was added to maintain the dry weight at about 30%. Each soil system was mixed weekly to provide aeration.

`CCCN(CCC)C(=S)[S-].[Na+]` [DiPropyl Dithiocarbamate, Sodium Dipropyl dithiocarbamates] was tested, and the “% degradation (percent loss over the abiotic Control)” value (consortium [1]; time 0 h) was 3.99%, the “% degradation (percent loss over the abiotic Control)” value (consortium [1]; time 0.5 h) was 3.87% and the “% degradation (percent loss over the abiotic Control)” value (consortium [1]; time 1.5 h) was 4.21%. For the same compound, the “% degradation (percent loss over the abiotic Control)” value (consortium [1]; time 4 h) was 3.56%, the “% degradation (percent loss over the abiotic Control)” value (consortium [1]; time 5 h) was 3.49% and the “% degradation (percent loss over the abiotic Control)” value (consortium [1]; time 7 h) was 4.37%. For the same compound, the “% degradation (percent loss over the abiotic Control)” value (consortium [1]; time 27 h) was 7.82%, the “% degradation (percent loss over the abiotic Control)” value (consortium [1]; time 51 h) was 9.43% and the “% degradation (percent loss over the abiotic Control)” value (consortium [1]; time 73 h) was 11.24%. For the same compound, the “% degradation (percent loss over the abiotic Control)” value (consortium [1]; time 96 h) was 14.56%.

With `CCCCN(CCCC)C(=S)[S-].[Na+]` [Dibutyl Dithiocarbamate, Sodium Dibutyl dithiocarbamates] the “% degradation (percent loss over the abiotic Control)” value (consortium [1]; time 0 h) was 4.44%, the “% degradation (percent loss over the abiotic Control)” value (consortium [1]; time 0.5 h) was 4.70% and the “% degradation (percent loss over the abiotic Control)” value (consortium [1]; time 1.5 h) was 4.10%. For the same compound, the “% degradation (percent loss over the abiotic Control)” value (consortium [1]; time 4 h) was 3.81%, the “% degradation (percent loss over the abiotic Control)” value (consortium [1]; time 5 h) was 3.98% and the “% degradation (percent loss over the abiotic Control)” value (consortium [1]; time 7 h) was 4.12%. The “% degradation (percent loss over the abiotic Control)” value (consortium [1]; time 27 h) was 6.11%, the “% degradation (percent loss over the abiotic Control)” value (consortium [1]; time 51 h) was 6.66% and the “% degradation (percent loss over the abiotic Control)” value (consortium [1]; time 73 h) was 7.93%. For the same compound, the “% degradation (percent loss over the abiotic Control)” value (consortium [1]; time 96 h) was 9.46%.

With `CCN(CC)C(=S)S` [Diethyl Dithiocarbamate, sodium diethyl dithiocarbamate] the “% degradation (percent loss over the abiotic Control)” value (consortium [1]; time 0 h) was 3.28%, the “% degradation (percent loss over the abiotic Control)” value (consortium [1]; time 0.5 h) was 2.80% and the “% degradation (percent loss over the abiotic Control)” value (consortium [1]; time 1.5 h) was 8.78%. The “% degradation (percent loss over the abiotic Control)” value (consortium [1]; time 4 h) was 8.18%, the “% degradation (percent loss over the abiotic Control)” value (consortium [1]; time 5 h) was 13.29% and the “% degradation (percent loss over the abiotic Control)” value (consortium [1]; time 7 h) was 15.01%. The “% degradation (percent loss over the abiotic Control)” value (consortium [1]; time 27 h) was 18.00%, the “% degradation (percent loss over the abiotic Control)” value (consortium [1]; time 51 h) was 21.00% and the “% degradation (percent loss over the abiotic Control)” value (consortium [1]; time 73 h) was 23.00%. The “% degradation (percent loss over the abiotic Control)” value (consortium [1]; time 96 h) was 25.07%.

`CN(C)C(=S)[S-].[Na+]` [SDM, Sodium dimethyl dithiocarbamate] was tested, and the “% degradation (percent loss over the abiotic Control)” value (consortium [1]; time 0.5 h) was 8.1%, the “% degradation (percent loss over the abiotic Control)” value (consortium [1]; time 1.5 h) was 9.5% and the “% degradation (percent loss over the abiotic Control)” value (consortium [1]; time 4 h) was 12.3%. For the same compound, the “% degradation (percent loss over the abiotic Control)” value (consortium [1]; time 5 h) was 12.1%, the “% degradation (percent loss over the abiotic Control)” value (consortium [1]; time 7 h) was 27.1% and the “% degradation (percent loss over the abiotic Control)” value (consortium [1]; time 27 h) was 61.4%. For the same compound, the “% degradation (percent loss over the abiotic Control)” value (consortium [1]; time 51 h) was 77.8%, the “% degradation (percent loss over the abiotic Control)” value (consortium [1]; time 73 h) was 88.7% and the “% degradation (percent loss over the abiotic Control)” value (consortium [1]; time 96 h) was 97.5%. The “SDM degraded by the consortium” value (consortium [2]) was about 100%, the “PERCENT degradation of SDM” value (microbial consortium; 100 mg SDM per kg soil, 1 d) was 1.6% and the “PERCENT degradation of SDM” value (microbial consortium; 100 mg SDM per kg soil, 3 d) was 18.3%. For the same compound, the “PERCENT degradation of SDM” value (microbial consortium; 100 mg SDM per kg soil, 7 d) was 50.2%, the “PERCENT degradation of SDM” value (microbial consortium; 500 mg SDM per kg soil, 1 d) was 6.2% and the “PERCENT degradation of SDM” value (microbial consortium; 500 mg SDM per kg soil, 3 d) was 22.6%. The “PERCENT degradation of SDM” value (microbial consortium; 500 mg SDM per kg soil, 7 d) was 63%, the “PERCENT degradation of SDM” value (microbial consortium; 1000 mg SDM per kg soil, 1 d) was 4.8% and the “PERCENT degradation of SDM” value (microbial consortium; 1000 mg SDM per kg soil, 3 d) was 16.3%. For the same compound, the “PERCENT degradation of SDM” value (microbial consortium; 1000 mg SDM per kg soil, 7 d) was 39.7%, the “PERCENT degradation of SDM” value (microbial consortium; 1000 mg SDM per kg soil, 10 d) was 48% and the “PERCENT degradation of SDM” value (microbial consortium; 1000 mg SDM per kg soil, 14 d) was 72%. For the same compound, the “PERCENT degradation of SDM” value (microbial consortium; 1000 mg SDM per kg soil, 20 d) was 76%, the “PERCENT degradation of SDM” value (microbial consortium; 2000 mg SDM per kg soil, 1 d) was 3.9% and the “PERCENT degradation of SDM” value (microbial consortium; 2000 mg SDM per kg soil, 3 d) was 12.4%. The “PERCENT degradation of SDM” value (microbial consortium; 2000 mg SDM per kg soil, 7 d) was 26.7%, the “PERCENT degradation of SDM” value (microbial consortium; 2000 mg SDM per kg soil, 10 d) was 32.1% and the “PERCENT degradation of SDM” value (microbial consortium; 2000 mg SDM per kg soil, 14 d) was 47.6%. For the same compound, the “PERCENT degradation of SDM” value (microbial consortium; 2000 mg SDM per kg soil, 20 d) was 54%, the “PERCENT degradation of SDM” value (microbial consortium; 2000 mg SDM per kg soil, 28 d) was 58% and the “PERCENT degradation of SDM” value (microbial consortium; 5000 mg SDM per kg soil, 1 d) was 5.2%. For the same compound, the “PERCENT degradation of SDM” value (microbial consortium; 5000 mg SDM per kg soil, 3 d) was 3.1%, the “PERCENT degradation of SDM” value (microbial consortium; 5000 mg SDM per kg soil, 7 d) was 2.3% and the “PERCENT degradation of SDM” value (microbial consortium; 5000 mg SDM per kg soil, 10 d) was 1.8%. For the same compound, the “PERCENT degradation of SDM” value (microbial consortium; 5000 mg SDM per kg soil, 14 d) was 3.6%, the “PERCENT degradation of SDM” value (microbial consortium; 5000 mg SDM per kg soil, 20 d) was 1.8% and the “PERCENT degradation of SDM” value (microbial consortium; 5000 mg SDM per kg soil, 28 d) was 3.2%.

Source: US20030201224A1, “Microbial consortium for the biodegradation of dithiocarbamates” (priority 2002, published 2003)
